Results from patent US20110130397A1, “PYRROLINONE COMPOUNDS AS INHIBITORS OF BACTERIAL PEPTIDYL TRNA HYDROLASE AND USES THEREOF” (priority 2006, published 2011).

Tests used:
[1] = Cytotoxicity (CellTiter 96 Aqueous Non-Radioactive Cell Proliferation Assay); type: cell-based; details: human, Huh7 cells
Description: Novel antibacterial peptidyl tRNA hydrolase inhibitors were identified using the MIC assay (inhibition ranged from 32-100%). The inhibitors were also bacteria specific, as evidenced by the low cytotoxicity observed for the human Huh7 cells (FIG. 4). Cytotoxicity was determined according to manufacturer's directions (CellTiter 96 Aqueous Non-Radioactive Cell Proliferation Assay, Promega).
Further data for representative compounds is set forth in Table 1 (MIC and cytotoxicity). Compounds were tested against S. aureus (ATCC 29213) and E. coli (BAS849—permeable) in the MIC assays. Certain compounds were also tested against other bacteria, including S. epidermis (ATCC 12228), E. faecium (ATCC 49624), and E. faecalis (ATCC 29212). Cytotoxicity was determined using Hu7 cells and Hep G2 cells. The MIC and cytotoxicity assays were performed as described above.

melting point [°C] | SMILES | CC50 [1] [µM]
205 to 208 | CC(=O)c1sc(N2C(=O)C(O)=C(C(=O)c3cc4ccccc4o3)C2c2ccccc2)nc1C (stereo not shown) [Compound 54] | 78.5
226 to 228 | CC(=O)c1sc(N2C(=O)C(O)=C(C(=O)c3cc4ccccc4o3)C2c2ccc(-c3ccccc3)cc2)nc1C (stereo not shown) [Compound 55] | 42.9
251 to 253 | CC(=O)c1sc(N2C(=O)C(O)=C(C(=O)c3cc4ccccc4o3)C2c2ccc(Oc3ccccc3)cc2)nc1C (stereo not shown) [Compound 56] | > 984
186 to 188 | CCCCOc1ccc(C2C(C(=O)c3cc4ccccc4o3)=C(O)C(=O)N2c2nc(C)c(C(C)=O)s2)cc1 (stereo not shown) [Compound 57] | > 91
169 to 171 | Cc1coc(N2C(=O)C(O)=C(C(=O)c3cc4ccccc4o3)C2c2ccc(OCc3ccccc3)cc2)n1 (stereo not shown) [Compound 58] | > 94
